Assay results as given in patent publication US6737383B1, “Herbicidal oxadiazolidines” (priority 1999, dated 2004).

How the values were obtained:
bedstraw = assay: Test B pre/postemergence bedstraw; format: in vivo, Galium aparine; conditions: Postemergence
Procedure, shortened: (§1)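 Response is a visual 0-to-10 score relative to untreated plants, where 0 means no effect and 10 means complete control, taken twelve to sixteen days after application. Treatments went onto soil at planting and onto foliage of 1- to 4-leaf plants, using a surfactant-containing non-phytotoxic solvent.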

blackgrass = assay: Test B pre/postemergence blackgrass; format: in vivo, Alopecurus myosuroides; conditions: for Blackgrass plant response rating: scale of 0 to 10 where 0 is no effect and 10 is complete control
Procedure, shortened: as §1

surinam grass = assay: Test B pre/postemergence surinam grass; format: in vivo, Brachiaria decumbens; conditions: for B. signalgrass plant response rating: scale of 0 to 10 where 0 is no effect and 10 is complete control
Procedure, shortened: as §1

cocklebur = assay: Test B pre/postemergence cocklebur; format: in vivo, Xanthium strumarium; conditions: for Cocklebur plant response rating: scale of 0 to 10 where 0 is no effect and 10 is complete control
Procedure, shortened: as §1

giant foxtail = assay: Test B pre/postemergence giant foxtail; format: in vivo, Setaria faberii; conditions: for Giant foxtail plant response rating: scale of 0 to 10 where 0 is no effect and 10 is complete control
Procedure, shortened: as §1

morningglory = assay: Test B pre/postemergence morningglory; format: in vivo, Ipomoea hederacea; conditions: for Morningglory plant response rating: scale of 0 to 10 where 0 is no effect and 10 is complete control
Procedure, shortened: as §1

pigweed = assay: Test B pre/postemergence pigweed; format: in vivo, Amaranthus retroflexus; conditions: for Redroot pigweed plant response rating: scale of 0 to 10 where 0 is no effect and 10 is complete control
Procedure, shortened: as §1

rape = assay: Test B pre/postemergence rape; format: in vivo, Brassica napus; conditions: for Rape plant response rating: scale of 0 to 10 where 0 is no effect and 10 is complete control
Procedure, shortened: as §1

soybean = assay: Test B pre/postemergence soybean; format: in vivo, Glycine max; conditions: for Soybean plant response rating: scale of 0 to 10 where 0 is no effect and 10 is complete control
Procedure, shortened: as §1

velvetleaf = assay: Test B pre/postemergence velvetleaf; format: in vivo, Abutilon theophrasti; conditions: for Velvetleaf plant response rating: scale of 0 to 10 where 0 is no effect and 10 is complete control
Procedure, shortened: as §1

wheat = assay: Test B pre/postemergence wheat; format: in vivo, Triticum aestivum; conditions: for Wheat plant response rating: scale of 0 to 10 where 0 is no effect and 10 is complete control
Procedure, shortened: as §1

wild oat = assay: Test B pre/postemergence wild oat; format: in vivo, Avena fatua; conditions: for Wild oats plant response rating: scale of 0 to 10 where 0 is no effect and 10 is complete control
Procedure, shortened: as §1

purple nutsedge = assay: Test B pre/postemergence purple nutsedge; format: in vivo, Cyperus rotundus; conditions: for Nutsedge plant response rating: scale of 0 to 10 where 0 is no effect and 10 is complete control
Procedure, shortened: as §1

smallflower flatsedge = assay: Test B flood test smallflower flatsedge; format: in vivo, Cyperus difformis
Procedure, shortened: (§2)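 Flood test on plants grown to the 2-leaf stage; treated plants kept in greenhouse twelve to sixteen days, then visually rated against controls on a 0 (no effect) to 10 (complete control) scale.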

duck salad = assay: Test B flood test duck salad; format: in vivo, Heteranthera limosa
Procedure, shortened: as §2

bamyardgrass = assay: Test B flood test barnyardgrass; format: in vivo, Echinochloa crus-galli
Procedure, shortened: as §2

[1] = Postemergence, Rate 125 g/ha, scale 0 to 10, 0 is no effect, 10 is complete control
[2] = Postemergence, Rate 250 g/ha, scale 0 to 10, 0 is no effect, 10 is complete control
[3] = Preemergence, Rate 62 g/ha, scale 0 to 10 (0 no effect, 10 complete control)
[4] = Rate 500 g/ha, Postemergence, scale 0 to 10, 0 no effect, 10 complete control
[5] = Rate 62 g/ha, flood test species, Pre-emergence, visual evaluation after twelve to sixteen days
[6] = Rate 125 g/ha, under heading Pre-emergence, flood test species, visual evaluation after twelve to sixteen days
[7] = Rate 250 g/ha, Pre-emergence, flood-test species, scale 0 to 10, 0 is no effect, 10 is complete control
[8] = Rate 500 g/ha, Pre-emergence, flood test species, scale 0 to 10 (0 no effect, 10 complete control)

CC(C)N(C(=O)n1oc(=O)n(N2CCOCC2)c1=O)c1ccc(F)cc1F [Compound 384]
Plant response rating, Bedstraw (bedstraw; Rate 125 g/ha, scale 0 to 10, 0 is no effect, 10 is complete control): 0 | Plant response rating, Bedstraw (bedstraw; Rate 250 g/ha, scale 0 to 10, 0 is no effect, 10 is complete control): 0 | Bedstraw plant response rating (bedstraw; Rate 62 g/ha, scale of 0 to 10 where 0 is no effect and 10 is complete control): 0 | Plant response rating, Bedstraw (bedstraw; Rate 500 g/ha, scale 0 to 10, 0 no effect, 10 complete control): 0 | Plant response rating, Blackgrass (blackgrass; [1]): 4 | Plant response rating, Blackgrass (blackgrass; [2]): 9 | Plant response rating, Blackgrass (blackgrass; [3]): 0 | Blackgrass plant response rating (0 to 10 scale) (blackgrass; Preemergence, Rate 125 g/ha): 0 | Blackgrass plant response rating (blackgrass; Preemergence, Rate 250 g/ha): 3 | Blackgrass plant response rating (blackgrass; Preemergence, Rate 500 g/ha): 7 | Blackgrass plant response rating (blackgrass; Rate 62 g/ha, Postemergence): 3 | Plant response rating, B. signalgrass (surinam grass; [1]): 3 | Plant response rating, B. signalgrass (surinam grass; [2]): 6 | Plant response rating, B. signalgrass (surinam grass; [3]): 0 | B. signalgrass plant response rating (0 to 10 scale, 0 is no effect, 10 is complete control) (surinam grass; Preemergence, Rate 125 g/ha): 0 | B. signalgrass plant response rating (surinam grass; Preemergence, Rate 250 g/ha): 3 | B. signalgrass plant response rating (surinam grass; Preemergence, Rate 500 g/ha): 7 | B. signalgrass plant response rating (surinam grass; Rate 62 g/ha, Postemergence): 0 | Plant response rating, B. signalgrass (surinam grass; [4]): 7 | Plant response rating, Cocklebur (cocklebur; [1]): 0 | Plant response rating, Cocklebur (cocklebur; [2]): 0 | Plant response rating, Cocklebur (cocklebur; [3]): 0 | Cocklebur plant response rating (0 to 10 scale) (cocklebur; Preemergence, Rate 125 g/ha): 0 | Cocklebur plant response rating (cocklebur; Preemergence, Rate 250 g/ha): 0 | Cocklebur plant response rating (cocklebur; Preemergence, Rate 500 g/ha): 0 | Cocklebur plant response rating (cocklebur; Rate 62 g/ha, Postemergence): 0 | Plant response rating, Cocklebur (cocklebur; [4]): 0 | Plant response rating, Giant foxtail (giant foxtail; [1]): 8 | Plant response rating, Giant foxtail (giant foxtail; [2]): 9 | Plant response rating, Giant foxtail (giant foxtail; [3]): 9 | Giant foxtail plant response rating (0 to 10 scale) (giant foxtail; Preemergence, Rate 125 g/ha): 10 | Giant foxtail plant response rating (giant foxtail; Preemergence, Rate 250 g/ha): 10 | Giant foxtail plant response rating (giant foxtail; Preemergence, Rate 500 g/ha): 10 | Giant foxtail plant response rating (giant foxtail; Rate 62 g/ha, Postemergence): 4 | Plant response rating, Giant foxtail (giant foxtail; [4]): 9 | Plant response rating, Morningglory (morningglory; [1]): 0 | Plant response rating, Morningglory (morningglory; [2]): 0 | Plant response rating, Morningglory (morningglory; [3]): 0 | Morningglory plant response rating (0 to 10 scale) (morningglory; Preemergence, Rate 125 g/ha): 0 | Morningglory plant response rating (morningglory; Preemergence, Rate 250 g/ha): 0 | Morningglory plant response rating (morningglory; Preemergence, Rate 500 g/ha): 2 | Morningglory plant response rating (morningglory; Rate 62 g/ha, Postemergence): 0 | Plant response rating, Morningglory (morningglory; [4]): 0 | Plant response rating, Redroot pigweed (pigweed; [1]): 0 | Plant response rating, Redroot pigweed (pigweed; [2]): 0 | Plant response rating, Redroot pigweed (pigweed; [3]): 0 | Redroot pigweed plant response rating (0 to 10 scale) (pigweed; Preemergence, Rate 125 g/ha): 0 | Redroot pigweed plant response rating (pigweed; Preemergence, Rate 250 g/ha): 0 | Redroot pigweed plant response rating (pigweed; Preemergence, Rate 500 g/ha): 0 | Redroot pigweed plant response rating (pigweed; Rate 62 g/ha, Postemergence): 0 | Plant response rating, Redroot pigweed (pigweed; [4]): 0 | Plant response rating, Rape (rape; [1]): 0 | Plant response rating, Rape (rape; [2]): 0 | Plant response rating, Rape (rape; [3]): 0 | Rape plant response rating (0 to 10 scale) (rape; Preemergence, Rate 125 g/ha): 0 | Rape plant response rating (rape; Preemergence, Rate 250 g/ha): 0 | Rape plant response rating (rape; Preemergence, Rate 500 g/ha): 0 | Rape plant response rating (rape; Rate 62 g/ha, Postemergence): 0 | Plant response rating, Soybean (soybean; [1]): 2 | Plant response rating, Soybean (soybean; [2]): 3 | Plant response rating, Soybean (soybean; [3]): 0 | Soybean plant response rating (0 to 10 scale) (soybean; Preemergence, Rate 125 g/ha): 0 | Soybean plant response rating (soybean; Preemergence, Rate 250 g/ha): 0 | Soybean plant response rating (soybean; Preemergence, Rate 500 g/ha): 3 | Soybean plant response rating (soybean; Rate 62 g/ha, Postemergence): 1 | Plant response rating, Soybean (soybean; [4]): 3 | Plant response rating, Velvetleaf (velvetleaf; [1]): 0 | Plant response rating, Velvetleaf (velvetleaf; [2]): 0 | Plant response rating, Velvetleaf (velvetleaf; [3]): 0 | Velvetleaf plant response rating (0 to 10 scale) (velvetleaf; Preemergence, Rate 125 g/ha): 0 | Velvetleaf plant response rating (velvetleaf; Preemergence, Rate 250 g/ha): 1 | Velvetleaf plant response rating (velvetleaf; Preemergence, Rate 500 g/ha): 3 | Velvetleaf plant response rating (velvetleaf; Rate 62 g/ha, Postemergence): 0 | Plant response rating, Velvetleaf (velvetleaf; [4]): 0 | Plant response rating, Wheat (wheat; [1]): 0 | Plant response rating, Wheat (wheat; [2]): 2 | Plant response rating, Wheat (wheat; [3]): 0 | Wheat plant response rating (0 to 10 scale) (wheat; Preemergence, Rate 125 g/ha): 0 | Wheat plant response rating (wheat; Preemergence, Rate 250 g/ha): 2 | Wheat plant response rating (wheat; Preemergence, Rate 500 g/ha): 3 | Wheat plant response rating (wheat; Rate 62 g/ha, Postemergence): 0 | Plant response rating, Wheat (wheat; [4]): 3 | Plant response rating, Wild oats (wild oat; [1]): 0 | Plant response rating, Wild oats (wild oat; [2]): 0 | Plant response rating, Wild oats (wild oat; [3]): 0 | Wild oats plant response rating (0 to 10 scale) (wild oat; Preemergence, Rate 125 g/ha): 0 | Wild oats plant response rating (wild oat; Preemergence, Rate 250 g/ha): 6 | Wild oats plant response rating (wild oat; Preemergence, Rate 500 g/ha): 6 | Wild oats plant response rating (wild oat; Rate 62 g/ha, Postemergence): 0 | Plant response rating, Wild oats (wild oat; [4]): 4 | Plant response rating, Nutsedge (purple nutsedge; [1]): 0 | Plant response rating, Nutsedge (purple nutsedge; [2]): 0 | Plant response rating, Nutsedge (purple nutsedge; [3]): 0 | Nutsedge plant response rating (0 to 10 scale) (purple nutsedge; Preemergence, Rate 125 g/ha): 0 | Nutsedge plant response rating (purple nutsedge; Preemergence, Rate 250 g/ha): 0 | Nutsedge plant response rating (purple nutsedge; Preemergence, Rate 500 g/ha): 0 | Nutsedge plant response rating (purple nutsedge; Rate 62 g/ha, Postemergence): 0 | Plant response rating, Nutsedge (purple nutsedge; [4]): 0 | Plant response rating, S. Flatsedge (0 to 10 scale, 0 is no effect, 10 is complete control) (smallflower flatsedge; [5]): 0 | S. Flatsedge plant response rating (0 to 10 scale, 0 is no effect, 10 is complete control) (smallflower flatsedge; [6]): 0 | S. Flatsedge plant response rating (smallflower flatsedge; [7]): 0 | S. Flatsedge plant response rating (smallflower flatsedge; [8]): 0 | Plant response rating, Ducksalad (0 to 10 scale, 0 is no effect, 10 is complete control) (duck salad; [5]): 0 | Ducksalad plant response rating (0 to 10 scale, 0 is no effect, 10 is complete control) (duck salad; [6]): 0 | Ducksalad plant response rating (duck salad; [7]): 0 | Ducksalad plant response rating (duck salad; [8]): 0 | Plant response rating, Barnyardgrass (0 to 10 scale, 0 is no effect, 10 is complete control) (bamyardgrass; [5]): 0 | Barnyardgrass plant response rating (0 to 10 scale, 0 is no effect, 10 is complete control) (bamyardgrass; [6]): 0 | Barnyardgrass plant response rating (bamyardgrass; [7]): 0 | Barnyardgrass plant response rating (bamyardgrass; [8]): 0
